# Legend:
# [1] = system: T-cell activation in rat whole blood; assay: Example 4: IL-17A release in thapsigargin stimulated rat whole blood; format: cell-based, rat (Lewis or Sprague-Dawley); conditions: 24 Hr, at least 2 replicates, unit inferred, read-out: IC50 (inhibition of IL-17A release)
# From the text: Rat whole blood was used to assess the potency of Kv1.3 inhibitor peptides on T-cell activation as determined by IL-17A release after stimulation with thapsigargin. Addition of thapsigargin results in activation of a signalling cascade ending up in activation of T cell proliferation and cytokine production where the Kv1.3 ion channel plays a key role, so activity of Kv1.3 inhibitors in primary cells can be measured in this experimental system.
# Rat whole blood was obtained from healthy, naïve Lewis or Sprague-Dawley rats that were terminally bleed from the heart using Sodium Heparin blood sampling tubes for collection. Peptides were diluted to 4× final testing concentrations in assay buffer (DMEM+GlutaMAX), GlutaMAX is a medium comprising 3.97 mM L-alanine-L-glutamine (Gibco Cat #61965026) supplemented with 25 mM HEPES buffer, 1 mM Sodium Pyruvate, 100 units/ml Penicillin, 100 μg/ml Streptomycin and 0.05% Casein from bovine milk (Sigma-Aldrich)) and 25 μl was added to wells of a 96 well plate. Then 50 μl whole rat blood was added and incubated for minimum 5 minutes at room temperature to allow compound binding. Then 25 μl 40 μM thapsigargin diluted in assay buffer was added to all wells of the assay plates to activate the cells, followed by incubation for 24 Hr at 37° C./5% CO2 in a humidified box. The assay plates were centrifuged for 10 min at 300 g at 4° C. and the supernatants were transferred to new plates. The concentrations of IL-17A released to the supernatants were measured using a Rat IL-17A ELISA Kit (Abcam Cat #ab214028) as recommended by the manufacturer. Samples were diluted 2.5-fold by transferring 20 μl of the supernatants to wells on ELISA plates containing 30 μl buffer 75BS from the detection kit.
# Data from peptides eliciting an inhibition of IL-17A were normalised relative to full thapsigargin activation (no inhibitor added) and no activation controls (addition of assay buffer instead of thapsigargin) to calculate the IC50 from the concentration response curve.
# Results are shown in Table 5, expressed as IC50, with standard deviation (IC50_SD). All values are derived from at least 2 replicates. The biological effects ex vivo show a correlation with the potency of the peptides.
# Kv1.6 = target: T1, Kv1.6 (Homo sapiens, UniProt P17658); assay: Patch clamp assay (QPatch), Kv1.6; format: cell-based; conditions: for IC50: QPatch, CHO cells stably expressing human Kv1.6, read-out: Potency IC50, Kv1.6; for Selectivity Kv1.6/Kv1.3: ratio of IC50 Kv1.6/Kv1.3
# T1 construct: expressed in transfected cells
# Method: (§1) Selectivity of Kv1.3 inhibitor peptides for Kv1.3 over other potassium ion channels (Kv1.1, Kv1.2 and Kv1.6) was determined using patch clamp assay.
# (§2) Chinese Hamster Ovary (CHO) cell lines stably expressing exogenous human α-subunits of each potassium ion channel were grown and passaged under standard culture conditions.
# (§3) The automated, chip-based planar patch clamp device QPatch® was used to quantitate the ionic currents. All recordings were made in the conventional whole-cell configuration after establishment of gigaohm seals. […] During experiments 0.1% (v/v) BSA was included as a vehicle in all external recording solutions. Currents were elicited from a holding potential of −80 mV using a voltage protocol, which shifted the voltage to 30 mV for 500 ms every 15 s.
# (§4) Concentration-response relationships were established by cumulatively applying seven escalating concentrations of test sample to an individual cell with a recording period of 2 min per compound application.
# (§5) The efficacy was determined as the mean charge for the last three sweeps at the end of each concentration application period from the cursor positions. The percent inhibition for each test dose application period was calculated as the reduction in mean cursor value (charge) relative to the cursor value measured at the end of the vehicle period and used to calculate the IC50 from the concentration response curve.
# Kv1.1 = target: T2, Kv1.1 (Homo sapiens, UniProt Q09470); assay: Patch clamp assay (QPatch), Kv1.1; format: cell-based; conditions: for IC50: QPatch, CHO cells stably expressing human Kv1.1, read-out: Potency IC50, Kv1.1; for Selectivity Kv1.1/Kv1.3: ratio of IC50 Kv1.1/Kv1.3
# T2 construct: expressed in transfected cells
# Kv1.3 = target: T3, Kv1.3 (Homo sapiens, UniProt P22001); assay: Patch clamp assay (QPatch), Kv1.3; format: cell-based; conditions: CHO cells stably expressing human Kv1.3, read-out: Potency IC50, Kv1.3
# T3 construct: expressed in transfected cells
# Kv1.2 = target: T4, Kv1.2 (Homo sapiens, UniProt P16389); assay: Patch clamp assay (QPatch), Kv1.2; format: cell-based; conditions: for IC50: QPatch, CHO cells stably expressing human Kv1.2, read-out: Potency IC50, Kv1.2; for Selectivity Kv1.2/Kv1.3: ratio of IC50 Kv1.2/Kv1.3
# T4 construct: expressed in transfected cells
# T4 sequence (P16389 whole entry): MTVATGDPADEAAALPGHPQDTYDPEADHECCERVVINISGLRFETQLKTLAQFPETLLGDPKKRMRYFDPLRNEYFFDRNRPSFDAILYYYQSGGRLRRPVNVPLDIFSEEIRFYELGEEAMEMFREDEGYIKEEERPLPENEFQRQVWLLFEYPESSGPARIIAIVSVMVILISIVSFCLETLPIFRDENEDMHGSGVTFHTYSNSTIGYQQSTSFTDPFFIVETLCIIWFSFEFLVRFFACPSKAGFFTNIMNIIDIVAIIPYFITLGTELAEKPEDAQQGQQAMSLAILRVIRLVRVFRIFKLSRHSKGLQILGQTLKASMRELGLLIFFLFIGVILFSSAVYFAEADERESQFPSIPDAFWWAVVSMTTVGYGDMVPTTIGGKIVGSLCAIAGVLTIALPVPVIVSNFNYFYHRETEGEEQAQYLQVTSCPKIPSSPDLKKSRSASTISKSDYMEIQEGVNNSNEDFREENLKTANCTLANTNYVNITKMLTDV
# Method: as §1, §2, §3, §4, §5
# T1 sequence (P17658 whole entry): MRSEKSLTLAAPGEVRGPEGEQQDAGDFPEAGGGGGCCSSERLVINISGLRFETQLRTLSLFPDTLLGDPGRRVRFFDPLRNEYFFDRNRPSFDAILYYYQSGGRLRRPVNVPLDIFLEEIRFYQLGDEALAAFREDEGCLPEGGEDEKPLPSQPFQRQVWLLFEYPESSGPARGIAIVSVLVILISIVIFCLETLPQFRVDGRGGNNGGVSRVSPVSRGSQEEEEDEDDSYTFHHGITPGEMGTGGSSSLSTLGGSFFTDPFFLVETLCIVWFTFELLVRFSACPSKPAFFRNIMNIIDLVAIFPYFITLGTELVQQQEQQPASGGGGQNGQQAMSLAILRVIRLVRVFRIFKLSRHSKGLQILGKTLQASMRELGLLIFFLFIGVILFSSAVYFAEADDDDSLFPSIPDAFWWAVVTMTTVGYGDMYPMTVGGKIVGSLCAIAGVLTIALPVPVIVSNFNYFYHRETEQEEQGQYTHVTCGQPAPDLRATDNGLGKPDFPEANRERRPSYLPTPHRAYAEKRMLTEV
# T2 sequence (Q09470 whole entry): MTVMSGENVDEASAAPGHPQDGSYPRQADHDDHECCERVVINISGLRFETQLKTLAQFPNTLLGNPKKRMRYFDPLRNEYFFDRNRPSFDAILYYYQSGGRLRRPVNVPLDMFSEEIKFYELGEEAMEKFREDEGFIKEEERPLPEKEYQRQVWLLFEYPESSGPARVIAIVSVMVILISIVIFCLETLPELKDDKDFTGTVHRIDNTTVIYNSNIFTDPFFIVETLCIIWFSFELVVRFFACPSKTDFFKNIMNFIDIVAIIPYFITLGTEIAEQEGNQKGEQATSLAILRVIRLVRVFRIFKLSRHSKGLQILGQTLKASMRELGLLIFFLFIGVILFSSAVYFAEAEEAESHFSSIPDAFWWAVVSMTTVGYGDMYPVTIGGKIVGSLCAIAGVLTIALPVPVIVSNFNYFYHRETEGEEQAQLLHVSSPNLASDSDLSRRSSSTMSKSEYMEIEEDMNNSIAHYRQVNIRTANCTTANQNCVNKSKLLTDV
# T3 sequence (P22001 whole entry): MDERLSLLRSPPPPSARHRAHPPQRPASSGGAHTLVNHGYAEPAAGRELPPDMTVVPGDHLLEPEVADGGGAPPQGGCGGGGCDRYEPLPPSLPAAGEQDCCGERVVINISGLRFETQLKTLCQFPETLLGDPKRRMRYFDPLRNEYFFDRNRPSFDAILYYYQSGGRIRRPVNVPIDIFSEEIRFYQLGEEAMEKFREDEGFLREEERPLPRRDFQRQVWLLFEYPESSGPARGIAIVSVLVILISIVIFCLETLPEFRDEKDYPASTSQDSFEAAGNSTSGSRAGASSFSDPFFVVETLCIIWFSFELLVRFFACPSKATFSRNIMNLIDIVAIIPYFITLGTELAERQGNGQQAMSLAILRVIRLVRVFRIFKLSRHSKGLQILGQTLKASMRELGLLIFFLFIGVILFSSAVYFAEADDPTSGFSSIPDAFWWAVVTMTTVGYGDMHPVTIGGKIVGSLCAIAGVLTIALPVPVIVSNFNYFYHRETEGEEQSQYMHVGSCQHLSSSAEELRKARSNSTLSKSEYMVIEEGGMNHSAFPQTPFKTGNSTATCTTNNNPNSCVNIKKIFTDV
substance,measurement,setting,value
H-S[Nle]D[Nle]RC(1)SASVEC(2)KEKC(3)LQAIGSIFGKC(1)[Nle]NKKC(2)KC(3)YPR-NH2 [Peptide 87],IC50,[1],0.69 nM
H-NMDMRC(1)SASVEC(2)KQKC(3)LAIGSIFGKC(1)MNKKC(2)KC(3)YPR-NH2 [Peptide 55],IC50,Kv1.6,> 3000 nM
same,Selectivity Kv1.6/Kv1.3,Kv1.6,>1200
same,IC50,Kv1.1,> 3000 nM
same,Selectivity Kv1.1/Kv1.3,Kv1.1,>1200
same,IC50,Kv1.3,2.41 nM
same,IC50,Kv1.2,291 nM
same,Selectivity Kv1.2/Kv1.3,Kv1.2,121
H-S[Nle]D[Nle]RC(1)SASVEC(2)KQKC(3)LKAIGSIFGKC(1)[Nle]NKKC(2)KC(3)YPR-OH [Peptide 68],IC50,[1],0.52 nM
H-S[Nle]D[Nle]RC(1)SASVEC(2)KQKC(3)LKAIGSIFGKC(1)MNKKC(2)KC(3)[F(4-NO2)]PR-NH2 [Peptide 95],IC50,[1],1.3 nM
H-QMDMRC(1)SASVEC(2)KQKC(3)LKAIGRGFGKC(1)MNKKC(2)KC(3)YPR-OH [Peptide 2],IC50,Kv1.6,1810 nM
same,Selectivity Kv1.6/Kv1.3,Kv1.6,1204
same,IC50,Kv1.1,> 3000 nM
same,Selectivity Kv1.1/Kv1.3,Kv1.1,>2000
same,IC50,Kv1.3,1.5 nM
same,IC50,Kv1.2,97 nM
same,Selectivity Kv1.2/Kv1.3,Kv1.2,65
H-S[Nle]D[Nle]RC(1)SASVEC(2)KQKC(3)LVAIGSIFGKC(1)MNKKC(2)KC(3)YPR-NH2 [Peptide 80],IC50,[1],0.39 nM
H-NMDMRC(1)SASVEC(2)KQKC(3)RKAIGSIFGKC(1)MNKKC(2)KC(3)YPR-NH2 [Peptide 52],IC50,Kv1.3,0.25 nM
H-NMDMRC(1)SASVEC(2)KQKC(3)LKAYGSIFGKC(1)MNKKC(2)KC(3)YPR-NH2 [Peptide 59],IC50,Kv1.6,> 3000 nM
same,Selectivity Kv1.6/Kv1.3,Kv1.6,>8800
same,IC50,Kv1.1,> 3000 nM
same,Selectivity Kv1.1/Kv1.3,Kv1.1,>8800
same,IC50,Kv1.3,0.34 nM
same,IC50,Kv1.2,145 nM
same,Selectivity Kv1.2/Kv1.3,Kv1.2,426
H-S[Nle]D[Nle]RC(1)SA[Abu]VEC(2)KQKC(3)LKAIGSIFGKC(1)MNKKC(2)KC(3)YPR-NH2 [Peptide 70],IC50,[1],0.93 nM
H-S[Nle]D[Nle]RC(1)SASVEC(2)KQKC(3)LKAIGSIFGKC(1)MNKKC(2)KC(3)YQ-NH2 [Peptide 76],IC50,[1],1.6 nM
H-S[Nle]D[Nle]RC(1)SASVEC(2)VQKC(3)LKAIGSIFGKC(1)MNKKC(2)KC(3)YPR-NH2 [Peptide 74],IC50,[1],0.47 nM
H-C(1)SASVEC(2)KQKC(3)LKAIGC(4)IFGKC(1)[Nle]NKKC(2)KC(3)YPC(4)-NH2 [Peptide 89],IC50,[1],1.1 nM
H-LRC(1)SASVEC(2)KQKC(3)LKAIGSIFGKC(1)[Nle]NKKC(2)KC(3)YPR-OH [Peptide 115],IC50,[1],2.1 nM
H-P[Nle]E[Nle]RC(1)SASVEC(2)KQKC(3)LLAIGSIFGKC(1)[Nle]NKKC(2)KC(3)YPR-OH [Peptide 103],IC50,[1],0.5 nM
H-NMDMRC(1)SASVEC(2)KQKC(3)LKRIGSIFGKC(1)MNKKC(2)KC(3)YPR-NH2 [Peptide 57],IC50,Kv1.6,932 nM
same,Selectivity Kv1.6/Kv1.3,Kv1.6,3062
same,IC50,Kv1.1,> 3000 nM
same,Selectivity Kv1.1/Kv1.3,Kv1.1,>9900
same,IC50,Kv1.3,0.3 nM
same,IC50,Kv1.2,57 nM
same,Selectivity Kv1.2/Kv1.3,Kv1.2,187
H-N[Nle]D[Nle]RC(1)SASVEC(2)QQKC(3)LKAIGSIFGKC(1)[Nle]NKKC(2)KC(3)YPR-NH2 [Peptide 45],IC50,[1],1.1 nM
H-NMDMRC(1)SASVEC(2)KQKC(3)LKAIGSIFGKC(1)MNKKC(2)VC(3)YPR-NH2 [Peptide 39],IC50,[1],2.8 nM
H-NMDMRC(1)SASVEC(2)KQKC(3)LKYIGSIFGKC(1)MNKKC(2)KC(3)YPR-NH2 [Peptide 56],IC50,Kv1.3,0.12 nM
H-N[Nle]D[Nle]RC(1)SASVEC(2)KQKC(3)LKAIGSIFGKC(1)[Nle]NKKC(2)KC(3)YPR-NH2 [Peptide 41],IC50,Kv1.6,1830 nM
same,Selectivity Kv1.6/Kv1.3,Kv1.6,7073
same,IC50,Kv1.1,> 3000 nM
same,Selectivity Kv1.1/Kv1.3,Kv1.1,>11600
same,IC50,Kv1.3,0.26 nM
same,IC50,Kv1.2,113 nM
same,Selectivity Kv1.2/Kv1.3,Kv1.2,436
H-S[Nle]D[Nle]RC(1)SASVEC(2)K[2-Amino-5-carboxypentanoyl]KC(3)LKAIGSIFGKC(1)MNKKC(2)KC(3)YPR-NH2 [Peptide 75],IC50,[1],0.52 nM
H-S[Nle]D[Nle]RC(1)SASVEC(2)AQKC(3)LAAIGSIFGKC(1)MNKKC(2)KC(3)YPR-NH2 [Peptide 82],IC50,Kv1.3,0.16 nM
Ac-LRC(1)SASVEC(2)KQKC(3)LAAIGSIFGKC(1)[Nle]NKKC(2)KC(3)YPR-OH [Peptide 122],IC50,[1],0.9 nM
Ac-LRC(1)SASVEC(2)KQKC(3)LAAIGSIFGKC(1)MNKKC(2)KC(3)YPR-OH [Peptide 123],IC50,[1],0.36 nM
H-S[Nle]D[Nle]RC(1)SASVEC(2)KQKC(3)LKAIGSIFGKC(1)MNKKC(2)KC(3)[F(4-CH3)]PR-NH2 [Peptide 96],IC50,[1],0.54 nM
H-NMEMRC(1)SASVEC(2)KQKC(3)LKAIGSIFGKC(1)MNKKC(2)KC(3)YPR-OH [Peptide 13],IC50,Kv1.6,> 3000 nM
same,Selectivity Kv1.6/Kv1.3,Kv1.6,>27600
same,IC50,Kv1.1,> 3000 nM
same,Selectivity Kv1.1/Kv1.3,Kv1.1,>27600
same,IC50,Kv1.3,0.11 nM
same,IC50,Kv1.2,228 nM
same,Selectivity Kv1.2/Kv1.3,Kv1.2,2093
H-S[Nle]D[Nle]RC(1)SASVEC(2)AQSC(3)LKAIGSIFGKC(1)MNKKC(2)KC(3)YPR-NH2 [Peptide 81],IC50,Kv1.6,> 3000 nM
same,Selectivity Kv1.6/Kv1.3,Kv1.6,>14600
same,IC50,Kv1.1,> 3000 nM
same,Selectivity Kv1.1/Kv1.3,Kv1.1,>14600
same,IC50,Kv1.3,0.21 nM
same,IC50,Kv1.2,1150 nM
same,Selectivity Kv1.2/Kv1.3,Kv1.2,5596
H-N[Nle]D[Nle]RC(1)SASVEC(2)EQKC(3)LKAIGSIFGKC(1)[Nle]NKKC(2)KC(3)YPR-NH2 [Peptide 44],IC50,[1],0.99 nM
H-NMDMRC(1)SASVEC(2)KQKC(3)LKAIHSIFGKC(1)MNKKC(2)KC(3)YPR-NH2 [Peptide 34],IC50,[1],0.7 nM
H-S[Nle]D[Nle]RC(1)SASVEC(2)KQKC(3)LKAIGSIFGKC(1)MNKKC(2)KC(3)[F(4-F)]PR-NH2 [Peptide 94],IC50,[1],0.34 nM
"H-P[Nle]E[Nle]RC(1)[2,4-Diaminobutanoyl]ASVEC(2)KQKC(3)LAAIGSIFGKC(1)[Nle]NKKC(2)KC(3)YPR-OH [Peptide 84]",IC50,Kv1.6,> 3000 nM
same,Selectivity Kv1.6/Kv1.3,Kv1.6,>100000
same,IC50,Kv1.1,> 3000 nM
same,Selectivity Kv1.1/Kv1.3,Kv1.1,>100000
same,IC50,Kv1.3,0.028 nM
same,IC50,Kv1.2,480 nM
same,Selectivity Kv1.2/Kv1.3,Kv1.2,17000
"H-RSCIDTIPKSRCTAFQCKHSMKYRLSFCRKTCGTC-OH [ShK, reference compound]",IC50,Kv1.6,0.19 nM
same,IC50,Kv1.2,11 nM
H-NMDMRC(1)KASVEC(2)KQKC(3)LKAIGSIFGKC(1)MNKKC(2)KC(3)YPR-NH2 [Peptide 26],IC50,Kv1.6,363 nM
same,Selectivity Kv1.6/Kv1.3,Kv1.6,4144
same,IC50,Kv1.1,> 3000 nM
same,Selectivity Kv1.1/Kv1.3,Kv1.1,>34200
same,IC50,Kv1.3,0.09 nM
same,IC50,Kv1.2,67 nM
same,Selectivity Kv1.2/Kv1.3,Kv1.2,761
H-S[Nle]D[Nle]RC(1)SASVEC(2)KQKC(3)LAAIGC(4)IFGKC(1)[Nle]NKKC(2)KC(3)YPC(4)-NH2 [Peptide 90],IC50,[1],0.73 nM
H-P[Nle]D[Nle]RC(1)SASVEC(2)KQKC(3)LKAIGC(4)IFGKC(1)[Nle]NKKC(2)KC(3)YPC(4)-OH [Peptide 86],IC50,[1],1.1 nM
H-S[Nle]D[Nle]RC(1)SASVEC(2)KQKC(3)LKAIGSIFG[homo-Lys]C(1)MNKKC(2)KC(3)YPR-NH2 [Peptide 71],IC50,[1],2.7 nM
H-N[Nle]D[Nle]RC(1)SASVEC(2)KQKC(3)LKAIGSIFGKC(1)MNKKC(2)KC(3)YPR-NH2 [Peptide 40],IC50,Kv1.3,0.15 nM
H-P[Nle]D[Nle]RC(1)SASVEC(2)KEKC(3)L[homo-Gln]AIGSIFGKC(1)[Nle]NKKC(2)KC(3)YPR-NH2 [Peptide 88],IC50,[1],1.4 nM
H-PIDERC(1)SASVEC(2)KQKC(3)LAAIGSIFGKC(1)[Nle]NKKC(2)KC(3)YPR-OH [Peptide 104],IC50,[1],0.87 nM
H-P[Nle]E[Nle]RC(1)[2-Amino-3-guanidinopropionyl]ASVEC(2)KQKC(3)LAAIGSIFGKC(1)[Nle]NKKC(2)KC(3)YPR-OH [Peptide 91],IC50,Kv1.6,> 3000 nM
same,Selectivity Kv1.6/Kv1.3,Kv1.6,>46000
same,IC50,Kv1.1,> 3000 nM
same,Selectivity Kv1.1/Kv1.3,Kv1.1,>46000
same,IC50,Kv1.3,0.064 nM
same,IC50,Kv1.2,380 nM
same,Selectivity Kv1.2/Kv1.3,Kv1.2,6000
H-NMDMRC(1)SASVEC(2)KQKC(3)YKAIGSIFGKC(1)MNKKC(2)KC(3)YPR-NH2 [Peptide 51],IC50,Kv1.3,0.27 nM
H-P[Nle]D[Nle]RC(1)SASVEC(2)AQKC(3)LAAIGSIFGKC(1)MNKKC(2)KC(3)YPR-OH [Peptide 106],IC50,[1],0.32 nM

# Reference: patent US20260325605A1, “INHIBITORS” (Zealand Pharma A/S, priority 2022, published 2026)
